This is an account of results in PMC5893428, “Heligmosomoides polygyrus Venom Allergen-like Protein-4 (HpVAL-4) is a sterol binding protein” (International Journal for Parasitology, 2018).

The structures appear in SMILES notation.

The test concerns the target T1, HpVAL-4 (Heligmosomoides polygyrus, UniProt A0A183GMB4).
T1 construct: mature protein, Arabidopsis chitinase signal peptide for secretion, no tag mentioned; Nicotiana benthamiana leaf apoplast; N-glycosylated
The experiment in a line: radioligand binding, adsorption to Q-Sepharose, scintillation counting.

T1 sequence (A0A183GMB4 entry or part of it): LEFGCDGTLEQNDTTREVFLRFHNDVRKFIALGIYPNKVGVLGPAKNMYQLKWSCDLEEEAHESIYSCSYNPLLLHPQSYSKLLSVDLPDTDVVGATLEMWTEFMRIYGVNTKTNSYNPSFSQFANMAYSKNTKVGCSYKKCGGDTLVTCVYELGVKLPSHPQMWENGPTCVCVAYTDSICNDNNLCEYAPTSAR

As a reminder, the Kd is the concentration at which binding is half-saturated. Low values mean higher affinity, high ones lower affinity. In turn, `CC(C)CCC[C@@H](C)[C@H]1CC[C@H]2[C@@H]3CC=C4C[C@@H](O)CC[C@]4(C)[C@H]3CC[C@]12C` [cholesterol] had a dissociation constant Kd of 1.53 µM.
